{"source": "patent US12281363B2", "about": "“Methods for detecting antiviral-drug resistant virus” (Secretary of State for Health and Social Care, priority 2018, dated 2025)", "test_system": "HSV-1", "assay": "Plaque reduction assay, HSV-1 clinical isolates on Vero cells", "assay_type": "cell-based", "settings": "Human alphaherpesvirus 1, Vero", "excerpt": "Viral isolates were used to infect a sub-confluent monolayer of Vero cells at a concentration of 75 or 50 plaque forming units (PFU) per well for HSV-1 and HSV-2, respectively. […] CMC medium typically used to create a semisolid interface and prevents indiscrimate viral spreading. Other materials (e.g. agar) may also be used to create this interface.\nCells were fixed with 10% formalin and stained with crystal violet before enumeration of the plaques (microscopic observation or use of fluorescent antibodies for detection is also suitable). The data obtained from these experiments were then expressed as percent inhibition of viral infectivity relative to the no drug control.\nDefinitions of phenotypic drug susceptibility classification as sensitive or resistant were as follows: ACV, <3 μM or >40 μM; PCV, <10 μM or >40 μM; CDV, <24 μM or >30 μM; FOS, <250 μM or >400 μM; and ACV, <6.5 μM or >40 μM; PCV, <38 μM or >40 μM; FOS, <250 μM or >400 μM for HSV-1 and HSV-2, respectively. Any IC50 values falling in between these sensitive and resistant cut-offs were reported as intermediate resistance.\nThe phenotype (i.e. reactivity to a drug) of the virus was characterised by the plaque reduction assay as described above.", "note": "Read-outs that look alike come from different tables or passages of the source."}
{"smiles": "Nc1ccn(C[C@@H](CO)OCP(=O)(O)O)c(=O)n1", "note": "[Cidofovir, cidofovir]", "values": [{"measurement": "IC50", "setting": "isolate HPG032, HSV-1 TK 183* (437_438insA), read-out: Drug susceptibility Cidofovir (CDV)", "result": "< 24", "unit": "µM"}, {"measurement": "IC50", "setting": "isolate HPG033, HSV-1 TK I358L (1072A>C), also TK T287M, read-out: Drug susceptibility (IC50 value)", "result": 15, "unit": "µM"}, {"measurement": "IC50", "setting": "isolate HPG033, HSV-1 TK I358L (1072A>C), also TK T287M, read-out: Drug susceptibility Cidofovir (CDV)", "result": "< 24", "unit": "µM"}, {"measurement": "IC50", "setting": "isolate HPG033, HSV-1 pol N1046T (3137A>C), also TK T287M, pol A1169T, read-out: Drug susceptibility (IC50 value)", "result": 15, "unit": "µM"}, {"measurement": "IC50", "setting": "isolate HPG033, HSV-1 pol N1046T (3137A>C), also TK T287M, pol A1169T, read-out: Drug susceptibility Cidofovir (CDV)", "result": "< 24", "unit": "µM"}, {"measurement": "IC50", "setting": "isolate HPG035, HSV-1 pol S239L (716C>T), also pol S724N, read-out: Drug susceptibility (IC50 value)", "result": 39.6, "unit": "µM"}, {"measurement": "IC50", "setting": "isolate HPG035, HSV-1 pol S239L (716C>T), also pol S724N, read-out: Drug susceptibility Cidofovir (CDV)", "result": "> 30", "unit": "µM"}, {"measurement": "IC50", "setting": "isolate HPG037, HSV-1 TK L69M (205>A), also TK Y239H, read-out: Drug susceptibility Cidofovir (CDV)", "result": "< 24", "unit": "µM"}, {"measurement": "IC50", "setting": "isolate HPG037, HSV-1 TK R256W (766C>T), read-out: Drug susceptibility (IC50 value)", "result": 4.39, "unit": "µM"}, {"measurement": "IC50", "setting": "isolate HPG037, HSV-1 TK R256W (766C>T), read-out: Drug susceptibility Cidofovir (CDV)", "result": "< 24", "unit": "µM"}, {"measurement": "IC50", "setting": "isolate HPG037, HSV-1 TK Y239H (715T>C), read-out: Drug susceptibility (IC50 value)", "result": 4.39, "unit": "µM"}, {"measurement": "IC50", "setting": "isolate HPG037, HSV-1 TK Y239H (715T>C), read-out: Drug susceptibility Cidofovir (CDV)", "result": "< 24", "unit": "µM"}, {"measurement": "IC50", "setting": "isolate HPG039, HSV-1 TK 85* or H58fs (169delC, 170delC, 171delC, or 172delC), read-out: Drug susceptibility (IC50 value)", "result": 2.97, "unit": "µM"}, {"measurement": "IC50", "setting": "isolate HPG039, HSV-1 TK 85* or H58fs (169delC, 170delC, 171delC, or 172delC), read-out: Drug susceptibility Cidofovir (CDV)", "result": "< 24", "unit": "µM"}, {"measurement": "IC50", "setting": "isolate HPG040, HSV-1 pol S911N (2732G>A), also TK deletion (C) nt 896-900, pol A1169T, read-out: Drug susceptibility (IC50 value)", "result": 11.3, "unit": "µM"}, {"measurement": "IC50", "setting": "isolate HPG040, HSV-1 pol S911N (2732G>A), also TK deletion (C) nt 896-900, pol A1169T, read-out: Drug susceptibility Cidofovir (CDV)", "result": "< 24", "unit": "µM"}, {"measurement": "IC50", "setting": "isolate HPG041, HSV-1 pol S911N (2732G>A), also pol A1169T, read-out: Drug susceptibility (IC50 value)", "result": 18, "unit": "µM"}, {"measurement": "IC50", "setting": "isolate HPG041, HSV-1 pol S911N (2732G>A), also pol A1169T, read-out: Drug susceptibility Cidofovir (CDV)", "result": "< 24", "unit": "µM"}, {"measurement": "IC50", "setting": "isolate HPG042, HSV-1 pol A972V (2915C>T), also TK deletion (C) nt 881-885, pol A1169T, read-out: Drug susceptibility (IC50 value)", "result": "< 1.56", "unit": "µM"}, {"measurement": "IC50", "setting": "isolate HPG042, HSV-1 pol A972V (2915C>T), also TK deletion (C) nt 881-885, pol A1169T, read-out: Drug susceptibility Cidofovir (CDV)", "result": "< 24", "unit": "µM"}, {"measurement": "IC50", "setting": "isolate HPG042, HSV-1 pol G22R (64G>A), also TK deletion (C) nt 881-885, pol A1169T, read-out: Drug susceptibility (IC50 value)", "result": "< 1.56", "unit": "µM"}, {"measurement": "IC50", "setting": "isolate HPG042, HSV-1 pol G22R (64G>A), also TK deletion (C) nt 881-885, pol A1169T, read-out: Drug susceptibility Cidofovir (CDV)", "result": "< 24", "unit": "µM"}, {"measurement": "IC50", "setting": "isolate HPG043, HSV-1 TK 183* (437_438insA), read-out: Drug susceptibility (IC50 value)", "result": 1.65, "unit": "µM"}, {"measurement": "IC50", "setting": "isolate HPG043, HSV-1 TK 183* (437_438insA), read-out: Drug susceptibility Cidofovir (CDV)", "result": "< 24", "unit": "µM"}, {"measurement": "IC50", "setting": "isolate HPG045, HSV-1 TK L49R (146T>G), read-out: Drug susceptibility (IC50 value)", "result": "< 1.56", "unit": "µM"}, {"measurement": "IC50", "setting": "isolate HPG045, HSV-1 TK L49R (146T>G), read-out: Drug susceptibility Cidofovir (CDV)", "result": "< 24", "unit": "µM"}, {"measurement": "IC50", "setting": "isolate HPG045, HSV-1 pol L419I (1255C>A), also TK L49R, pol A1169T, read-out: Drug susceptibility (IC50 value)", "result": "< 1.56", "unit": "µM"}, {"measurement": "IC50", "setting": "isolate HPG045, HSV-1 pol L419I (1255C>A), also TK L49R, pol A1169T, read-out: Drug susceptibility Cidofovir (CDV)", "result": "< 24", "unit": "µM"}, {"measurement": "IC50", "setting": "isolate HPG046, HSV-1 TK I166N (497T>A), read-out: Drug susceptibility (IC50 value)", "result": 2.1, "unit": "µM"}, {"measurement": "IC50", "setting": "isolate HPG046, HSV-1 TK I166N (497T>A), read-out: Drug susceptibility Cidofovir (CDV)", "result": "< 24", "unit": "µM"}, {"measurement": "IC50", "setting": "isolate HPG047, HSV-1 pol E680 (2039A>C), also TK deletion (C) nt 548-553, pol A1169T, read-out: Drug susceptibility Cidofovir (CDV)", "result": "< 24", "unit": "µM"}, {"measurement": "IC50", "setting": "isolate HPG051, HSV-1 pol D83A (248A>C), also TK R176stop, read-out: Drug susceptibility (IC50 value)", "result": 4.94, "unit": "µM"}, {"measurement": "IC50", "setting": "isolate HPG051, HSV-1 pol D83A (248A>C), also TK R176stop, read-out: Drug susceptibility Cidofovir (CDV)", "result": "< 24", "unit": "µM"}, {"measurement": "IC50", "setting": "isolate HPG052, HSV-1 TK Q34* (100C>T), read-out: Drug susceptibility (IC50 value)", "result": 4.77, "unit": "µM"}, {"measurement": "IC50", "setting": "isolate HPG052, HSV-1 TK Q34* (100C>T), read-out: Drug susceptibility Cidofovir (CDV)", "result": "< 24", "unit": "µM"}, {"measurement": "IC50", "setting": "isolate HPG053, HSV-1 pol L802R + A834S (2405T>G, 2500G>T), also TK R176W, read-out: Drug susceptibility Cidofovir (CDV)", "result": "< 24", "unit": "µM"}, {"measurement": "IC50", "setting": "isolate HPG053, HSV-1 pol S911N (2732G>A), also TK R176W, pol A1169T, read-out: Drug susceptibility (IC50 value)", "result": 7.72, "unit": "µM"}, {"measurement": "IC50", "setting": "isolate HPG053, HSV-1 pol S911N (2732G>A), also TK R176W, pol A1169T, read-out: Drug susceptibility Cidofovir (CDV)", "result": "< 24", "unit": "µM"}, {"measurement": "IC50", "setting": "isolate HPG054, HSV-1 pol E992K (2974G>A), also TK insert (G) nt 430-436, pol A1169T, read-out: Drug susceptibility (IC50 value)", "result": 3.85, "unit": "µM"}, {"measurement": "IC50", "setting": "isolate HPG054, HSV-1 pol E992K (2974G>A), also TK insert (G) nt 430-436, pol A1169T, read-out: Drug susceptibility Cidofovir (CDV)", "result": "< 24", "unit": "µM"}, {"measurement": "IC50", "setting": "isolate HPG055, HSV-1 TK V204G (611T>G), also pol A1169AT, read-out: Drug susceptibility (IC50 value)", "result": "< 1.56", "unit": "µM"}, {"measurement": "IC50", "setting": "isolate HPG055, HSV-1 TK V204G (611T>G), also pol A1169AT, read-out: Drug susceptibility Cidofovir (CDV)", "result": "< 24", "unit": "µM"}, {"measurement": "IC50", "setting": "read-out: Drug susceptibility (IC50 value), isolate HPG005, HSV-1 TK A192T (574G>A)", "result": 2.21, "unit": "µM"}, {"measurement": "IC50", "setting": "read-out: Drug susceptibility (IC50 value), isolate HPG006, HSV-1 pol G121S (361G>A), also a TK resistance mutation (footnote a)", "result": 6.14, "unit": "µM"}, {"measurement": "IC50", "setting": "read-out: Drug susceptibility (IC50 value), isolate HPG012, HSV-1 pol G985E (2954G>A), also TK A93V", "result": 2.84, "unit": "µM"}, {"measurement": "IC50", "setting": "read-out: Drug susceptibility (IC50 value), isolate HPG016, HSV-1 pol A1169T (3505G>A)", "result": 16.5, "unit": "µM"}, {"measurement": "IC50", "setting": "read-out: Drug susceptibility (IC50 value), isolate HPG037, HSV-1 TK L69M (205>A), also TK Y239H", "result": 4.39, "unit": "µM"}, {"measurement": "IC50", "setting": "read-out: Drug susceptibility (IC50 value), isolate HPG042, HSV-1 TK frameshift (881delC to 885delC)", "result": "< 1.56", "unit": "µM"}, {"measurement": "IC50", "setting": "read-out: Drug susceptibility (IC50 value), isolate HPG047, HSV-1 pol E680 (2039A>C), also TK deletion (C) nt 548-553, pol A1169T", "result": 2.88, "unit": "µM"}, {"measurement": "IC50", "setting": "read-out: Drug susceptibility Cidofovir (CDV), isolate HPG005, HSV-1 TK A192T (574G>A)", "result": "< 24", "unit": "µM"}, {"measurement": "IC50", "setting": "read-out: Drug susceptibility Cidofovir (CDV), isolate HPG006, HSV-1 pol G121S (361G>A), also a TK resistance mutation (footnote a)", "result": "< 24", "unit": "µM"}, {"measurement": "IC50", "setting": "read-out: Drug susceptibility Cidofovir (CDV), isolate HPG012, HSV-1 pol G985E (2954G>A), also TK A93V", "result": "< 24", "unit": "µM"}, {"measurement": "IC50", "setting": "read-out: Drug susceptibility Cidofovir (CDV), isolate HPG016, HSV-1 pol A1169T (3505G>A)", "result": "< 24", "unit": "µM"}, {"measurement": "IC50", "setting": "read-out: Drug susceptibility Cidofovir (CDV), isolate HPG042, HSV-1 TK frameshift (881delC to 885delC)", "result": "< 24", "unit": "µM"}]}
